The test system of series [1] is Nrf2. The following applies: basal half-life ~15 min; cited from earlier work.
The nature of series [2]: short-term toxicity study in mice. It is filed as in vivo. As to conditions: oral 2000 mg/kg bw, examined for 48 hr, outside laboratory.
Series [3] deals with scopolamine-induced memory impairment in mice. The following applies: cited from earlier work.
In series [4] the test system is Aβ. As to conditions: cell-free assay system; cited from earlier work.
For series [5], the system named is R6/2 mouse. As to conditions: R6/2 mice, cited from earlier work.
Series [6] deals with APPswe/PS1dE9 double transgenic AD mice. The following applies: cited from earlier work.
Series [7] shares this test system. The following applies: AD mice 12 months of age, 0.05% in food; cited from earlier work.
For series [8] the following is noted: cited from earlier work.
The target of series [9] is cytochrome P450 2D6 (Homo sapiens, UniProt P10635). The series is described as follows: cytochrome P450 2D6 inhibition. It is filed as in vitro ADME. The following applies: at concentrations up to 10 μM; unpublished results.
Chain of cytochrome P450 2D6 (P10635 whole entry): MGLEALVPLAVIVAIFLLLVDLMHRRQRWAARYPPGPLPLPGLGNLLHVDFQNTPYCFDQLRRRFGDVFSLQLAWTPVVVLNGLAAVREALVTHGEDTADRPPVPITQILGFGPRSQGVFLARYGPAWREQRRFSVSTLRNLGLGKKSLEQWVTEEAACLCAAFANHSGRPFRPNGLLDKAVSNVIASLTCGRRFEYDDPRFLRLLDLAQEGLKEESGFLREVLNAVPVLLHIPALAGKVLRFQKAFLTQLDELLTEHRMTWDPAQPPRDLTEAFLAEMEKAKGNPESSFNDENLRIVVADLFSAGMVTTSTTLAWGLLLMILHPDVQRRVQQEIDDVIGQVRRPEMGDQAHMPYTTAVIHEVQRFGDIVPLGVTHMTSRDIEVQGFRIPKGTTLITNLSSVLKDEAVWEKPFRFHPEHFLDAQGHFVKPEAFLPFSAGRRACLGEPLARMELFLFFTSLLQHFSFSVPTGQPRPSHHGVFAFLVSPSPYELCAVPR
For series [10], the system named is APPswe/PS1dE9 double transgenic AD mice. The following applies: 0.05% in food, cited from earlier work.
The conditions of series [11]: cited from earlier work. The source holds these as a separate data set.

As for `O=c1c(O)c(-c2ccc(O)c(O)c2)oc2cc(O)ccc12` [fisetin, 3,3′,4′,7-tetrahydroxyflavone], in series [1], the “increase of Nrf2 half-life” value is listed as ~ 2 fold. Moreover, the short-term toxicity result in [2] is on record as “No indications of toxicity”. In series [3] (scopolamine-treated mice), the “loss of total GSH from the cortex” value is “prevent the loss of total GSH”. In [3] (single oral dose of 40 mg/kg bw), the “rescue of memory deficit induced by scopolamine” value is given as “as effective as donepezil”. Further, the Aβ fibril formation entry in series [4] was “inhibit Aβ fibril formation”. Besides, in [5] (0.05% in food from ~6 weeks of age, control diet 104 days), the median life span is given as 139 days. The rotorod performance result in [5] (0.05% in food, at 9, 11 and 13 weeks (p < 0.01)) is “improved”. Further, in [5] (0.05% in food, vs control diet), the “increase of median life span” value is ~ 30%. Also, the “production of PGD2, PGJ2 and 15d-PGD2” value in [6] (AD mice study) is reported as “increased production”. Further, the “ERK phosphorylation in the hippocampus” value in series [6] (AD mice treated with fisetin) is “increases in ERK phosphorylation”. In [6] (AD mice, 0.05% in food), the “AD-increased production of thromboxanes TXB1 and TXB2” value is reported as “partly prevented”; the “astrocyte area and intensity of GFAP staining in hippocampus” value is recorded as “largely reversed”. Also, the “brain levels of 5-HETE and 12-HETE” value in series [6] (AD mice) is on record as “significantly reduce”. For the same compound, in series [6] (ELISA, Aβ1–42 not reduced), the “Aβ1–40 level in RIPA soluble fraction of hippocampus” value was “significantly reduce”. Also, in series [6] (fisetin-fed vs control AD mice), the “Aβ plaque loads in brain sections” value was “No significant differences”. The “escape latency, hidden platform day 2” value in [7] is “indistinguishable from that of the wild type mice”. Moreover, the chelation of iron entry in series [8] is “efficient chelation”. For the same compound, the “inhibition of cytochrome P450 2D6 activity” value in [9] is listed as “no inhibitory effects”. The swim speeds result in series [10] is given as “no effect”. Besides, the “MWM probe test, memory (time in platform quadrant)” value in series [10] (AD mice 9 months of age) is recorded as “clear evidence of memory improvement”. Further, in series [11], the “Trolox equivalent antioxidant capacity (TEAC) value” was ~ 3.

(Values after publication PMC5527824 (Frontiers in bioscience (Scholar edition), 2015).)
